The values that follow come from patent US9758485B2, “Compounds for controlling arthropods” (priority 2013, dated 2017).

Structures are written as SMILES. Where two headings read alike, the source gives them in different places.

The subject of data set [1] is Ctenocephalides felis. Nature of the data set: Ctenocephalides felis - in vitro contact tests with adult cat fleas. In kind it is in vivo. Conditions: application rate 5 μg/cm^2 (=500 g/ha), after 48 h (dead or moribund). In a few lines:
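Efficacy, as share of dead or moribund adult Ctenocephalides felis, read 48 h after placing 5-10 fleas in tubes coated by acetone solution (5 μg/cm^2 at 900 ppm). Incubation horizontal at room temperature, ambient humidity; immobile or uncoordinated fleas scored.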

A further data set has as its system Spodoptera frugiperda. Nature of the data set: Spodoptera frugiperda - spray test. It counts as in vivo. The note with it: foliar, 168 h, application rate 100 g/ha, caterpillars on maize leaf discs, after 7 days, read-out: efficacy. The protocol:
Spodoptera frugiperda—Spray Test
(§1) Solvent: 78.0 parts by weight of acetone and 1.5 parts by weight of dimethylformamide
(§2) Emulsifier: alkylaryl polyglycol ether
(§3) To produce an appropriate active ingredient formulation, 1 part by weight of active ingredient is dissolved using the specified parts by weight of solvent and made up with water containing an emulsifier concentration of 1000 ppm until the desired concentration is attained. To produce further test concentrations, the preparation is diluted with emulsifier-containing water.
Leaf discs of maize (Zea mays) are sprayed with an active ingredient formulation of the desired concentration and, after drying, populated with caterpillars of the armyworm (Spodoptera frugiperda).
After 7 days, efficacy in % is determined. 100% means that all the caterpillars have been killed; 0% means that no caterpillars have been killed.

The test system of another data set is Phaedon cochleariae. Nature of the data set: Phaedon cochleariae - spray test. It counts as in vivo. Conditions: Phaedon cochleariae, foliar, 168 h; application rate 100 g/ha; larvae on Chinese cabbage leaf discs; after 7 days; read-out: efficacy. The procedure: Phaedon cochleariae—Spray Test
as §1, §2, §3
Discs of Chinese cabbage leaves (Brassica pekinensis) are sprayed with an active ingredient formulation of the desired concentration and, after drying, populated with larvae of the mustard beetle (Phaedon cochleariae).
After 7 days, efficacy in % is determined. 100% means that all the beetle larvae have been killed; 0% means that no beetle larvae have been killed.

For another data set, the system named is Musca domestica. Nature of the data set: Musca domestica test. In kind it is in vivo. The note with it: application rate 100 ppm; adult houseflies; kill after 2 days. In a few lines: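 First, 10 mg compound was taken up in 0.5 ml DMSO and then brought with water to the required concentration. This was applied with sugar solution to a sponge in vessels holding 10 adult flies; kill was assessed after 2 days.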

The test system of data set [2] is Boophilus microplus Parkhurst strain, SP-resistant. Nature of the data set: Boophilus microplus - dip test. In kind it is in vivo. Conditions: application rate 100 ppm; dip of engorged adult female ticks; laying of fertile eggs, after 7 days. Summed up:
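Efficacy reflects suppression of fertile egg laying: 0% means all eggs fertile, 100% none, read at 7 days, doubtful eggs kept ~42 days for larval hatch. Treatment was a complete dip of 8–10 engorged adult female ticks (SP-resistant Parkhurst strain) in a water dilution of a DMSO stock.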

Data set [3] deals with Ctenocephalides felis. In words: Ctenocephalides felis - oral test. In kind it is in vivo. Conditions: Ctenocephalides felis, po, 48 h; application rate 100 ppm in citrated cattle blood; adult fleas; kill after 2 days; read-out: efficacy. In a few lines:
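Steps: active ingredient dissolved in dimethyl sulphoxide; blood dilution prepared; fleas (about 20, unfed adults) held in gauze-closed chamber beneath a cylinder of treated blood; feeding via parafilm; kill percentage determined after 2 days.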

For the next data set, the system named is Boophilus microplus. In words: Boophilus microplus - injection test. In kind it is in vivo. The note with it: Rhipicephalus microplus, 168 h; application rate 20 μg/animal; injected into engorged adult female ticks; laying of fertile eggs, after 7 days; read-out: efficacy. Summed up: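 Read-out is % efficacy from fertile egg laying at 7 days: 100% means no tick laid fertile eggs, 0% means all eggs fertile. Each of 5 engorged adult females received 1 μl of DMSO test solution injected abdominally.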

In a further data set the test system is Lucilia cuprina. In words: Lucilia cuprina test. In kind it is in vivo. Conditions: Lucilia cuprina, 48 h; application rate 100 ppm; L1 larvae in minced horsemeat; kill after 2 days; read-out: efficacy. In a few lines:
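Mortality (%) of first-instar blowfly larvae, about 20 per vessel, recorded 2 days after exposure to compound-treated minced horsemeat. Compound dissolved in dimethyl sulphoxide, then water-diluted to the desired concentration.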

Another data set concerns Myzus persicae. In words: Myzus persicae - spray test. It counts as in vivo. Conditions: application rate 100 g/ha; Chinese cabbage leaf discs; after 6 days. The protocol:
Myzus persicae—Spray Test
Solvent: 78 parts by weight of acetone and 1.5 parts by weight of dimethylformamide
as §2, §3
Discs of Chinese cabbage leaves (Brassica pekinensis) infested by all stages of the green peach aphid (Myzus persicae) are sprayed with an active ingredient formulation of the desired concentration.
After 6 days, efficacy in % is determined. 100% means that all the aphids have been killed; 0% means that none of the aphids have been killed.

The nature of data set [4]: logP determination by HPLC on a reversed-phase column (C18), EEC Directive 79/831 Annex V.A8. In kind it is physicochemical.

As for `Cc1cc(C(F)(C(F)(F)F)C(F)(F)F)cc(C)c1-n1cc(-c2ccc(Cl)c(C(=O)NC3CC3)c2)cn1` [I-T3-1, 2-chloro-N-cyclopropyl-5-[1-[2,6-dimethyl-4-[1,2,2,2-tetrafluoro-1-(trifluoromethyl)ethyl]phenyl]pyrazol-4-yl]benzamide], the efficacy (in the data set with Ctenocephalides felis [1]; with Musca domestica; in data set [2]; in the data set on Myzus persicae) was 100% in each case. The pest or weed control at 100 g/ha with Spodoptera frugiperda and in the data set with Phaedon cochleariae was 100% in each case. Further, the pest or weed control at 100 ppm in the data set on Ctenocephalides felis [3] and with Lucilia cuprina was 100% each time. For the same compound, the pest or weed control at 0.02 mg in the data set with Boophilus microplus was 100%. For the same compound, the chromatographic logP in [4] (reversed-phase HPLC column (C18), HPLC, reversed-phase C18, acetonitrile/water with formic acid, 55° C., read-out: logP) was determined as 4.36; in data set [4] (reversed-phase HPLC column (C18), HPLC-MS method a), Table I-T3; read-out: logP^a)), 4.4; in data set [4] (reversed-phase HPLC column (C18), HPLC-MS method a); read-out: logP^a)), 4.4.
